# Reference: patent US20230391825A1, “ENHANCED SKIN PERMEATION OF A NOVEL PEPTIDE VIA STRUCTURAL MODIFICATION, CHEMICAL ENHANCEMENT, AND MICRONEEDLES” (ESCAPE THERAPEUTICS, INC., priority 2020, published 2023)
# Peptide text beside a SMILES is read from it.
# Columns and labels:
# mushroom tyrosinase = details: cited from earlier work
# human tyrosinase = molecular target: T1, human tyrosinase (Homo sapiens, UniProt P14679); details: cited from earlier work
# T1 sequence (P14679 19-529): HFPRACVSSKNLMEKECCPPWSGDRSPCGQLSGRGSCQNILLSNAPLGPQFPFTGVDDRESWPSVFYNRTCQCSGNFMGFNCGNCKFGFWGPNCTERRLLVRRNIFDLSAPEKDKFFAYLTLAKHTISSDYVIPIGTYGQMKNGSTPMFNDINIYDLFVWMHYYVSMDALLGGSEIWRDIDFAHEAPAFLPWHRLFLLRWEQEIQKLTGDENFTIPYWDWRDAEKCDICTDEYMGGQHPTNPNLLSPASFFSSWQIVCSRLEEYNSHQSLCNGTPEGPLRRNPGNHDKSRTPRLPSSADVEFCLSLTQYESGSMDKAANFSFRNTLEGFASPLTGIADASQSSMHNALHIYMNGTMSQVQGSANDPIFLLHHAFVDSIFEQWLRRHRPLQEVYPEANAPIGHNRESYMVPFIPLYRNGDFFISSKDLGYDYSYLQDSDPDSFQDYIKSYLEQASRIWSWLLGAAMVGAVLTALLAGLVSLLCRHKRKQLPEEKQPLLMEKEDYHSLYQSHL
# melasma = details: cited from earlier work
# [1] = format: in vitro ADME
# From the text: Human dermatomed skin was obtained from Science Care (Arizona, USA). The skin tissues were excised from the thighs of two male cadavers with age at death of 66 and 57. The skin samples used in the study were without identifier and exempted from ethical review. The Integrity of cadaver skin was checked using visual inspection before use to ensure no pores or breaks in the skin surface were present. In addition, any compromise in skin integrity was identified through observation of a rapid and large increase in the amount of permeated peptide through the skin at the first sampling time point.
# Franz type diffusion cells were used. Human epidermis was mounted between donor and receptor compartments and excessive skin at the sides was trimmed off to minimize lateral diffusion. SC was faced towards the donor compartment and the skin area for permeation was 1.327 square centimeters. The receptor compartment was filled with 5.5 milliliters of 1 millimolar PBS solution containing 1 percent (volume/volume) antibacterial antimycotic solution. Receptor solution was filtered twice to prevent formation of air bubbles beneath the epidermis. […] Permeation was measured over 24 hours.
# The amount of peptide permeated was determined using Shimadzu CBM-20A HPLC system with Agilent ODS C18 column (4.6 millimeters x 250 millimeters x 5 microns, 170 Angstroms). […]
compound,measurement,setting,value
"N=C(N)NCCC[C@H](NC(=O)[C@H](CO)NC(=O)[C@H](CCCNC(=N)N)NC(=O)[C@@H](N)Cc1ccc(O)cc1)C(=O)N[C@@H](CCCCN)C(=O)N[C@@H](Cc1ccc(O)cc1)C(=O)N[C@@H](CO)C(=O)N[C@@H](CO)C(=O)N[C@@H](Cc1c[nH]c2ccccc12)C(=O)N[C@@H](Cc1ccc(O)cc1)C(=O)O [Native peptide, decapeptide-12] (H-YRSRKYSSWY-OH)",Competitive inhibition effect compared with hydroquinone,mushroom tyrosinase,stronger competitive inhibition effect
same,Competitive inhibition effect compared with hydroquinone,human tyrosinase,stronger competitive inhibition effect
same,Efficacy in reducing content of melanin,melasma; 16 weeks of twice daily treatment,more than 50%
same,Safety compared with hydroquinone,melasma; in vivo,safer than hydroquinone
same,Effect in treatment of melasma,"melasma; studies on humans, topical",good efficacy
same,Effect of enhancers on skin permeation,[1],didn't alter skin permeation
